The term IC50 denotes the midpoint of a concentration-inhibition curve. A low value points to higher potency. Broadly, the T/C is the ratio of treated to control. A word on the AUC(0-t): it is exposure summed from dosing to a finite time, without extrapolation to infinity. The low end stands for less exposure, the high end for more exposure. What is called MRT last is the average time that molecules of a dose stay in the body. In general, half-life refers to the time in which the quantity being followed falls by half. A lower half-life goes with fast loss. As a reminder, the bioavailability is the share of a dose that reaches the circulation, judged against a reference dose that is usually intravenous.

Each structure is given as a SMILES string. Where two headings read alike, the source gives them in different places.

Series [1] addresses human erythrocyte 20S proteasome (Homo sapiens (Human), UniProt P28074). The experiment in a line: Assay of inhibition on proteasome activity (chymotrypsin-like, Suc-LLVY-AMC substrate). The class given is biochemical. An excerpt: The proteasome used in the present invention is human erythrocyte 20S proteasome, and the enzyme, fluorescent substrate and test buffer are all purchased from Enzo.

The test system of another series is ARH-77 xenograft tumors. The series can be described thus: Evaluation in animal model of xenotransplantation (ARH-77 xenograft). The class given is in vivo, Balb/c nude mice. Conditions: oral; for RTV Mean / T/C / TGI (tumor inhibition rate) / TV Mean: three weeks. Here is the method: The human multiple myeloma cell line ARH-77 was used to implant tumors under the skin of Balb/enude mice to establish a transplanted tumor model. The specific experimental process is as follows.
1. 4-6 week-old Balb/c nude mice purchased from Shanghai Bikai Laboratory Animal Co., Ltd., were transferred to a barrier system to adapt to the environment for one week.
2. The cells were cultured to the logarithmic growth phase, digested, centrifuged, re-suspended in Matrigel at a density of 1×10^7 cells/ml, and placed on ice for later use. In the barrier system, the tumor cells were inoculated into the axilla of the animal's right forelimb in an amount of 1×10^6 cells per animal, and the inoculation volume for each animal was 100 microliters.
3. The animals were grown and the tumor volume was measured by a vernier caliper. When the average volume was increased to 100-150 mm^3, the animals were randomly divided into three groups including a blank control group, a positive drug group (Compound MLN-9708) and an experimental group […]), each group having 6 animals.
The formula for calculating tumor volume is: Volume(mm3)=0.5×(Length(mm)×Width(mm)2)
4. The compound used was formulated with a 5% R-sulfobutyl cyclodextrin sodium aqueous solution to give an appropriate concentration, ultrasonicated until the solution became clear, and then stored in a refrigerator at 4° C. for later use.
5. The mice were orally administered. The frequency of administration for the positive drug group was twice a week, and the dosage was 5 mg/kg. The mice in the experimental group were administered daily, and the dosage was 1 mg/kg. The administration was continuous for three weeks, and then the mice were sacrificed to end the experiment. During this process, the tumor volume was measured and recorded twice a week. The inhibitory effect of agents on tumor growth was calculated by the GraphPad Prism software.

A short description of series [2]: In-vivo pharmacokinetic evaluation in SD rats. Conditions: male SD rats; for AUC(0-t) / MRT last / half-life / bioavailability: rat, plasma; for AUC(0-t) / MRT last / half-life / CL_obs / Vz_obs: 2.0 mg/kg; for bioavailability: oral, p.o. 2.0 mg/kg vs i.v. 2.0 mg/kg, read-out: F (oral bioavailability); for CL_obs / Vz_obs: i.v. The protocol: Twelve male SD rats weighing 220±20g, were randomly divided into four groups.
Two groups were respectively given IV-9 and V-9A by tail vein injection at doses given in a table below, and before and 10 min, 20 min. 30 min, 1 h, 2 h, 4 h, 8 h, 12 h, 24 h and 36 h after administration, about 0.200 mL of blood was collected from the jugular vein, placed in a test tube containing EDTA-K2, and centrifuged at a high speed (7800×g) for 15 min. The plasma was separated, and stored at −15° C. to −35° C. The pharmacokinetic differences of IV-9 and V-9A administered by intravenous injection were compared.
The other two groups were respectively given IV-9 and V-9A by oral gavage at doses given in a table below, and before and 5 min, 10 min, 20 min, 30 min, 1 h, 2 h, 4 h, 8 h, 12 h, 24 h and 36 h after administration, about 0.200 mL of blood was collected from the jugular vein, placed in a test tube containing EDTA-K2, and centrifuged at a high speed (7800×g) for 15 min. The plasma was separated, and stored at −15° C. to −35° C. The pharmacokinetic differences of IV-9 and V-9A administered by oral gavage were compared.

In series [3] the target is proteasome activity in blood cells (Mus musculus (Mouse), UniProt O55234). The experiment in a line: In-vivo pharmacodynamics: proteasome activity in blood cells. Conditions: ICR mice, oral single dose 2 mg/kg. Here is the method: The compound designed in the present invention can be used to treat malignant tumors of the blood system, so the efficacy of the compound was evaluated by detecting the activity of the proteasome in the blood after single administration, and the in-vivo pharmacodynamic study can be carried out by blood sampling at different time points.
1. 8 week-old ICR mice purchased from Shanghai Bikai Laboratory Animal Co., Ltd., were transferred to a barrier system to adapt to the environment for one week.
2. The animals were divided into three groups, including a positive control group (MLN9708) and two experimental groups (IV-9, V-9A), each group having 3 animals.
3. Before administration, 100 μL of blood was sampled from each animal from the orbital venus plexus and used as the blank control, and the proteasome activity measured in blood cells in this sample was taken as 100%. 1 and 24 hrs after administration, blood was sampled from the orbital venus plexus, and the proteasome activity in blood cells was detected. The inhibitory effect of the drug on proteasome activity and recovery of proteasome activity in blood was obtained by comparison with the data at time 0.
4. […]
5. […] A cell lysing solution was added for protein quantification to correct the detected value. […] The dilution was further reacted with the fluorescent peptide substrate to detect the proteasome activity on a microplate reader.

proteasome activity in blood cells, sequence (O55234 60-264): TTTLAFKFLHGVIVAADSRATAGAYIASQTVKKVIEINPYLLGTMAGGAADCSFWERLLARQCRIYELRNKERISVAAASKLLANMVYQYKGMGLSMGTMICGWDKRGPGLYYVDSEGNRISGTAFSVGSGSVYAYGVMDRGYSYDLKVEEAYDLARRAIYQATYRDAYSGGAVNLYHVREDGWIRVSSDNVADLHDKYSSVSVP

With `CSC[C@H](NC(=O)c1cc(Cl)ccc1Cl)C(=O)N[C@@H](CC(C)C)B1OCCNCCO1` [Compound V-9A, (R)-diethanolamine N-(2,5-dichlorobenzoyl)-3-methylmercaptopropionamido-D-leucine borate], the IC50 in series [1] was 5.69 nM. Moreover, in the series with ARH-77 xenograft tumors (1 mg/kg daily), the “TW Mean (Day 21)” value stood at 0.65 g, the “RTV Mean” value was determined as 3.72, the T/C is 24.02% and the “TGI (tumor inhibition rate)” value was determined as 63.48%. In the series with ARH-77 xenograft tumors (1 mg/kg daily), the “TV Mean” value is on record as 354.78 mm^3. In series [2] (Sprague-Dawley (SD), iv), this compound had an AUC(0-t) of 2.55 µg·h/mL, an MRT last of 2.18 h and a half-life of 3.1 h. In series [2] (Sprague-Dawley (SD)), the bioavailability worked out at 24.9%. Also, in series [2] (Sprague-Dawley (SD), po), the AUC(0-t) is 0.634 µg·h/mL, the MRT last was 3.37 h and the half-life was 2.88 h. In series [2], this compound had a CL_obs of 0.671 L/h/kg and a Vz_obs of 3.01 L/kg. Besides, in series [3] (1 hr after administration, compared with MLN9708 5 mg/kg), the “inhibitory activity on proteasome in blood cells” value was “even better inhibitory activity”. In addition, the “proteasome activity in blood cells recovered, of the activity in the control group” value in series [3] (24 hrs after administration) was found to be 40%.

For `CSC[C@H](NC(=O)c1cc(Cl)ccc1Cl)C(=O)N[C@@H](CC(C)C)B1OC(=O)CC(CC(=O)O)(C(=O)O)O1` (stereo partly drawn) [Compound V-9B, (R)-N-(2,5-dichlorobenzoyl)-3-methylmercaptopropionamido-D-leucine borate citratte], in series [1], the IC50 is 6.6 nM.

As to `CSC[C@H](NC(=O)c1cc(Cl)ccc1Cl)C(=O)N[C@@H](CC(C)C)B(O)O` [IV-9], in series [2], the CL_obs was determined as 0.986 L/h/kg, the Vz_obs is 2.914 L/kg and the bioavailability came to 11%. In series [2] (iv), this compound had an AUC(0-t) of 1.89 µg·h/mL, a mean residence time (MRT last) of 1.55 h and a half-life of 2.08 h. In series [2] (po), this compound showed an AUC(0-t) of 0.208 µg·h/mL, an MRT last of 2.35 h and a half-life of 2.14 h.

As for `CC(C)C[C@H](NC(=O)CNC(=O)c1cc(Cl)ccc1Cl)B1OC(=O)CC(CC(=O)O)(C(=O)O)O1` (stereo partly drawn) [MLN9708, reference compound], in the series on ARH-77 xenograft tumors (5 mg/kg twice a week), the “TW Mean (Day 21)” value amounted to 1.33 g, the “RTV Mean” value was found to be 9.13, the T/C was determined as 58.94% and the “TGI (tumor inhibition rate)” value worked out at 25.28%. Besides, the “TV Mean” value with ARH-77 xenograft tumors (5 mg/kg twice a week) turned out to be 1042.71 mm^3. Moreover, the “TGI (tumor inhibition rate)” value with ARH-77 xenograft tumors (5 mg/kg twice a week, listed as MLN-9708) came out at 25.28%.
